Patent US20240270762A1, “PENICILLIN-BINDING PROTEIN INHIBITORS” (priority 2021, published 2024)
pIC50: −log10 of the molar value. In brackets after ≈: the same amount, converted by molar mass.

Legend:
[1] = system: N. gonorrhoeae WHO Z; experiment: Liquid broth MIC in Fastidious broth; conditions: Neisseria gonorrhoeae, read-out: Minimum Inhibitory Concentration (MIC), N. gonorrhoeae WHO Z
[2] = system: N. gonorrhoeae FA1090; experiment: Liquid broth MIC in Fastidious broth; conditions: Neisseria gonorrhoeae, FA1090, read-out: Minimum Inhibitory Concentration (MIC), N. gonorrhoeae FA 1090
Procedure: Additional antibacterial testing of the series was performed in 8 reference strains of N. gonorrhoeae (ATCC 49226, FA1090, MS 11, WHO G, WHO L, WHO M, WHO K, WHO X, WHO Z, WHO Q, CDC-0197). ATCC 49226, FA1090, MS11, WHO G, WHO L, and WHO M produce wild type or wild-type like PBP2. WHO K, WHO X, WHO Z, WHO Q, and CDC-0197 produce mosaic PBP2. Liquid broth-based assays were used for antibacterial testing of PBP inhibitors in Neisseria gonorrhoeae. Briefly, cryo-preserved bacterial cultures of clinical strains were streaked for isolation on Chocolate Agar (72 g/L (2×) GC Agar Base (BD #228950) and 2% (2×) Hemoglobin was autoclaved at 121° C. for 20 minutes to sterilize. Once cooled to ˜50° C. the 2×GC Agar Base and 2× Hemoglobin solutions are combined and 1% IsoVitaleX Enrichment (BD #211876) was added to the solution). Strains were incubated at 36° C. and 5% CO2 to allow growth of colonies, 24 hours before inoculum preparation. 2-fold serial dilutions of test compounds were conducted in a 96 well plate with a final volume of 75 μL per well at 2-fold the final desired concentration in Fastidious broth (Remel #R07664). For preparation of assay inoculum, a direct suspension was prepared by aseptically swabbing 10-15 colonies from agar plates into culture tubes containing 2 mL of fresh sterile saline. After the dilution plates were set up, direct suspensions were then diluted in a cuvette containing sterile saline and the optical density was measured at 600 nm. Inocula were diluted such that 75 μL of this culture in Fastidious broth results in a starting bacterial concentration of 5×10^5 CFU/mL when added to the dilution plates. The plates were incubated for ˜24 hours at 36° C. and 5% CO2.

[3] = target: T1, PBP1a from Acinetobacter baumannii (ATCC 19606) (Acinetobacter baumannii, UniProt A0ABX6CK30); experiment: Bocillin-FL fluorescence polarization competition binding, A. baumannii PBP1a; conditions: fluorescence polarization competition binding assay using Bocillin-FL; read-out: A. baumannii PBP1a Potency
T1 sequence (A0ABX6CK30 1-851): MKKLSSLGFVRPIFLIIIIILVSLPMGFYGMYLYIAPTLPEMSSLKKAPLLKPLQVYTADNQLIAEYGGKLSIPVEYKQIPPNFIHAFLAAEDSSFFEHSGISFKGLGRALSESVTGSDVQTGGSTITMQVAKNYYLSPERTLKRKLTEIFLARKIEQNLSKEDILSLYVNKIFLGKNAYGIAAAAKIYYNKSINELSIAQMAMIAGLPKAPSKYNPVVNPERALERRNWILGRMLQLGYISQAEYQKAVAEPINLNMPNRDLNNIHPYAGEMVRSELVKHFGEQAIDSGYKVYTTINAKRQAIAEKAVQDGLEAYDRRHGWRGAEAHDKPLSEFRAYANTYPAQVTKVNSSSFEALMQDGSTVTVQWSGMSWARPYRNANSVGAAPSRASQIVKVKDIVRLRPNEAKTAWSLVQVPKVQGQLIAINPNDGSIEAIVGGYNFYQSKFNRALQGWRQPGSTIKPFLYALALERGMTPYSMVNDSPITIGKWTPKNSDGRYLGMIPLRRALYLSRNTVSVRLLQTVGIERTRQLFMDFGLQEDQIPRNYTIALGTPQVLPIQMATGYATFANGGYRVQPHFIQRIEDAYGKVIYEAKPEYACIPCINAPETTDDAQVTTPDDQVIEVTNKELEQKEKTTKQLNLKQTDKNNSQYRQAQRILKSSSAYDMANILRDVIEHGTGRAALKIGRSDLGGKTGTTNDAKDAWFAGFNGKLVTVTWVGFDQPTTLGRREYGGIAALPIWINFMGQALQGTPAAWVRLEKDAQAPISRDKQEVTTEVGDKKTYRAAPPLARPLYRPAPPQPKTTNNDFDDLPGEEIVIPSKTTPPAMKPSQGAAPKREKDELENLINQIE
Procedure, shortened: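 Purified PBP was preincubated with inhibitor (E. coli PBP3 1.5 μM, 30 min; P. aeruginosa PBP3 0.75 μM, A. baumannii PBP3 0.2 μM and PBP1a 1 μM, 15 min), then Bocillin-FL (0.1 μM; 0.05 μM for PBP1a) added and FP read up to 60 min. EC50 = 50% loss of bound probe.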

[4] = system: P. aeruginosa ATCC 27853; experiment: microbe, parasite or virus in culture; assay type: cell-based; conditions: Pseudomonas aeruginosa, ATCC27853, read-out: Minimum inhibitory concentration, P. aeruginosa ATCC 27853
[5] = system: N. gonorrhoeae WHO G; experiment: Liquid broth MIC in Fastidious broth; conditions: Neisseria gonorrhoeae, read-out: Minimum Inhibitory Concentration (MIC), N. gonorrhoeae WHO G

Row | Compound | MIC [1] [µg/mL] | MIC [2] [µg/mL] | pIC50 [3] | MIC [4] [µg/mL] | MIC [5] [µg/mL]
1 | O=C(NCCCN1CCN(C(=O)NC(C(=O)N[C@H]2Cc3ccc(F)c(C(=O)O)c3OB2O)c2cc(F)c(O)c(O)c2Cl)C(=O)C1=O)c1ccncc1 (stereo partly drawn) [Example 205, (3R)-3-(2-(2-chloro-5-fluoro-3,4-dihydroxyphenyl)-2-(4-(3-(isonicotinamido)propyl)-2,3-dioxopiperazine-1-carboxamido)acetamido)-7-fluoro-2-hydroxy-3,4-dihydro-2H-benzo[e][1,2]oxaborinine-8-carboxylic acid] | 16 to 32 (≈ 21.5 to 43 µM) | 1 to 2 (≈ 1.34 to 2.69 µM) | < 3.60 | < 1 | 4 to 8 (≈ 5.37 to 10.7 µM)
2 | O=C(NCCCN1CCN(C(=O)NC(C(=O)N[C@H]2Cc3ccc(F)c(C(=O)O)c3OB2O)c2cc(F)c(O)c(O)c2Cl)C(=O)C1=O)Nc1cccc(O)c1 (stereo partly drawn) [Example 206, (3R)-3-(2-(2-chloro-5-fluoro-3,4-dihydroxyphenyl)-2-(4-(3-(3-(3-hydroxyphenyl)ureido)propyl)-2,3-dioxopiperazine-1-carboxamido)acetamido)-7-fluoro-2-hydroxy-3,4-dihydro-2H-benzo[e][1,2]oxaborinine-8-carboxylic acid] | 16 to 32 (≈ 20.6 to 41.3 µM) | 1 to 2 (≈ 1.29 to 2.58 µM) | < 3.60 | 2 to 4 (≈ 2.58 to 5.16 µM) | 4 to 8 (≈ 5.16 to 10.3 µM)
3 | O=C(NCCN1CCN(C(=O)NC(C(=O)N[C@H]2Cc3ccc(F)c(C(=O)O)c3OB2O)c2cc(F)c(O)c(O)c2Cl)C(=O)C1=O)c1ccccc1 (stereo partly drawn) [Example 207, (3R)-3-(2-(4-(2-benzamidoethyl)-2,3-dioxopiperazine-1-carboxamido)-2-(2-chloro-5-fluoro-3,4-dihydroxyphenyl)acetamido)-7-fluoro-2-hydroxy-3,4-dihydro-2H-benzo[e][1,2]oxaborinine-8-carboxylic acid] | 16 to 32 (≈ 21.9 to 43.8 µM) | 4 to 8 (≈ 5.48 to 11 µM) | < 3.60 | 2 to 4 (≈ 2.74 to 5.48 µM) | 16 to 32 (≈ 21.9 to 43.8 µM)
4 | CN(CCN1CCN(C(=O)N[C@@H](C(=O)N[C@H]2Cc3ccc(F)c(C(=O)O)c3OB2O)c2cc(F)c(O)c(O)c2Cl)C(=O)C1=O)Cc1ccc(N)nc1 [Example 209, (R)-3-((R)-2-(4-(2-(((6-aminopyridin-3-yl)methyl)(methyl)amino)ethyl)-2,3-dioxopiperazine-1-carboxamido)-2-(2-chloro-5-fluoro-3,4-dihydroxyphenyl)acetamido)-7-fluoro-2-hydroxy-3,4-dihydro-2H-benzo[e][1,2]oxaborinine-8-carboxylic acid] | 16 to 32 (≈ 21.5 to 42.9 µM) | 1 to 2 (≈ 1.34 to 2.68 µM) | < 3.60 | < 1 | 4 to 8 (≈ 5.36 to 10.7 µM)
5 | O=C(NCCCN1CCN(C(=O)N[C@@H](C(=O)N[C@H]2Cc3ccc(F)c(C(=O)O)c3OB2O)c2cc(F)c(O)c(O)c2Cl)C(=O)C1=O)c1cccnc1 [Example 210, (R)-3-((R)-2-(2-chloro-5-fluoro-3,4-dihydroxyphenyl)-2-(4-(3-(nicotinamido)propyl)-2,3-dioxopiperazine-1-carboxamido)acetamido)-7-fluoro-2-hydroxy-3,4-dihydro-2H-benzo[e][1,2]oxaborinine-8-carboxylic acid] | 16 to 32 (≈ 21.5 to 43 µM) | < 1 | < 3.60 | 2 to 4 (≈ 2.69 to 5.37 µM) | 4 to 8 (≈ 5.37 to 10.7 µM)
6 | O=C(NCCCN1CCN(C(=O)NC(C(=O)N[C@H]2Cc3ccc(F)c(C(=O)O)c3OB2O)c2cc(F)c(O)c(O)c2Cl)C(=O)C1=O)c1nccs1 (stereo partly drawn) [Example 211, (3R)-3-(2-(2-chloro-5-fluoro-3,4-dihydroxyphenyl)-2-(2,3-dioxo-4-(3-(thiazole-2-carboxamido)propyl)piperazine-1-carboxamido)acetamido)-7-fluoro-2-hydroxy-3,4-dihydro-2H-benzo[e][1,2]oxaborinine-8-carboxylic acid] | 16 to 32 (≈ 21.3 to 42.6 µM) | 1 to 2 (≈ 1.33 to 2.66 µM) | < 3.60 | 2 to 4 (≈ 2.66 to 5.33 µM) | 16 to 32 (≈ 21.3 to 42.6 µM)
7 | O=C(O)c1c(F)ccc2c1OB(O)[C@@H](NC(=O)C(NC(=O)N1CCN(CCCNC(=O)[C@@H]3CCCN3)C(=O)C1=O)c1cc(F)c(O)c(O)c1Cl)C2 (stereo partly drawn) [Example 212, (3R)-3-(2-(2-chloro-5-fluoro-3,4-dihydroxyphenyl)-2-(2,3-dioxo-4-(3-((S)-pyrrolidine-2-carboxamido)propyl)piperazine-1-carboxamido)acetamido)-7-fluoro-2-hydroxy-3,4-dihydro-2H-benzo[e][1,2]oxaborinine-8-carboxylic acid] | > 64 | 4 to 8 (≈ 5.43 to 10.9 µM) | < 3.60 | 2 to 4 (≈ 2.71 to 5.43 µM) | 16 to 32 (≈ 21.7 to 43.4 µM)
8 | O=C(NCCCN1CCN(C(=O)NC(C(=O)N[C@H]2Cc3ccc(F)c(C(=O)O)c3OB2O)c2cc(F)c(O)c(O)c2Cl)C(=O)C1=O)Nc1cccnc1 (stereo partly drawn) [Example 213, (3R)-3-(2-(2-chloro-5-fluoro-3,4-dihydroxyphenyl)-2-(2,3-dioxo-4-(3-(3-(pyridin-3-yl)ureido)propyl)piperazine-1-carboxamido)acetamido)-7-fluoro-2-hydroxy-3,4-dihydro-2H-benzo[e][1,2]oxaborinine-8-carboxylic acid] | > 64 | 1 to 2 (≈ 1.32 to 2.63 µM) | < 3.60 | 2 to 4 (≈ 2.63 to 5.26 µM) | 16 to 32 (≈ 21.1 to 42.1 µM)
9 | O=C(NCCN1CCN(C(=O)NC(C(=O)N[C@H]2Cc3ccc(F)c(C(=O)O)c3OB2O)c2cc(F)c(O)c(O)c2Cl)C(=O)C1=O)c1ccc(O)cc1 (stereo partly drawn) [Example 214, (3R)-3-(2-(2-chloro-5-fluoro-3,4-dihydroxyphenyl)-2-(4-(2-(4-hydroxybenzamido)ethyl)-2,3-dioxopiperazine-1-carboxamido)acetamido)-7-fluoro-2-hydroxy-3,4-dihydro-2H-benzo[e][1,2]oxaborinine-8-carboxylic acid] | 16 to 32 (≈ 21.5 to 42.9 µM) | 1 to 2 (≈ 1.34 to 2.68 µM) | < 3.60 | 2 to 4 (≈ 2.68 to 5.36 µM) | 4 to 8 (≈ 5.36 to 10.7 µM)
10 | O=C(NCCN1CCN(C(=O)NC(C(=O)N[C@H]2Cc3ccc(F)c(C(=O)O)c3OB2O)c2cc(F)c(O)c(O)c2Cl)C(=O)C1=O)c1cccc(O)c1 (stereo partly drawn) [Example 215, (3R)-3-(2-(2-chloro-5-fluoro-3,4-dihydroxyphenyl)-2-(4-(2-(3-hydroxybenzamido)ethyl)-2,3-dioxopiperazine-1-carboxamido)acetamido)-7-fluoro-2-hydroxy-3,4-dihydro-2H-benzo[e][1,2]oxaborinine-8-carboxylic acid] | 16 to 32 (≈ 21.5 to 42.9 µM) | 1 to 2 (≈ 1.34 to 2.68 µM) | < 3.60 | 2 to 4 (≈ 2.68 to 5.36 µM) | 4 to 8 (≈ 5.36 to 10.7 µM)
11 | O=C(NCCN1CCN(C(=O)NC(C(=O)N[C@H]2Cc3ccc(F)c(C(=O)O)c3OB2O)c2cc(F)c(O)c(O)c2Cl)C(=O)C1=O)c1ccncc1 (stereo partly drawn) [Example 216, (3R)-3-(2-(2-chloro-5-fluoro-3,4-dihydroxyphenyl)-2-(4-(2-(isonicotinamido)ethyl)-2,3-dioxopiperazine-1-carboxamido)acetamido)-7-fluoro-2-hydroxy-3,4-dihydro-2H-benzo[e][1,2]oxaborinine-8-carboxylic acid] | 16 to 32 (≈ 21.9 to 43.8 µM) | 4 to 8 (≈ 5.47 to 10.9 µM) | < 3.60 | 2 to 4 (≈ 2.74 to 5.47 µM) | 4 to 8 (≈ 5.47 to 10.9 µM)
12 | O=C(NCCN1CCN(C(=O)NC(C(=O)N[C@H]2Cc3ccc(F)c(C(=O)O)c3OB2O)c2cc(F)c(O)c(O)c2Cl)C(=O)C1=O)c1cccnc1 (stereo partly drawn) [Example 217, (3R)-3-(2-(2-chloro-5-fluoro-3,4-dihydroxyphenyl)-2-(4-(2-(nicotinamido)ethyl)-2,3-dioxopiperazine-1-carboxamido)acetamido)-7-fluoro-2-hydroxy-3,4-dihydro-2H-benzo[e][1,2]oxaborinine-8-carboxylic acid] | 16 to 32 (≈ 21.9 to 43.8 µM) | 1 to 2 (≈ 1.37 to 2.74 µM) | < 3.60 | 2 to 4 (≈ 2.74 to 5.47 µM) | 16 to 32 (≈ 21.9 to 43.8 µM)
13 | O=C(NCCN1CCN(C(=O)NC(C(=O)N[C@H]2Cc3ccc(F)c(C(=O)O)c3OB2O)c2cc(F)c(O)c(O)c2Cl)C(=O)C1=O)c1nccs1 (stereo partly drawn) [Example 218, (3R)-3-(2-(2-chloro-5-fluoro-3,4-dihydroxyphenyl)-2-(2,3-dioxo-4-(2-(thiazole-2-carboxamido)ethyl)piperazine-1-carboxamido)acetamido)-7-fluoro-2-hydroxy-3,4-dihydro-2H-benzo[e][1,2]oxaborinine-8-carboxylic acid] | > 64 | 1 to 2 (≈ 1.36 to 2.71 µM) | < 3.60 | 2 to 4 (≈ 2.71 to 5.43 µM) | 16 to 32 (≈ 21.7 to 43.4 µM)
